Reference: patent US20250115600A1, “COVALENT MODIFIERS OF AKT1 AND USES THEREOF” (Terremoto Biosciences, Inc., priority 2022, published 2025)

Experiments:
Assay in all cases: Live cell target engagement (NanoBRET) in HEK293 cells
Format in all cases: cell-based
AKT2 = AKT2 (Homo sapiens (Human), UniProt P31751); details: HEK293, 2 hours at 37° C.
AKT1 WT = AKT1 WT (Homo sapiens (Human), UniProt P31749); details: HEK293, 2 hours at 37° C.
AKT1 E17K = AKT1 E17K (Homo sapiens (Human), UniProt P31749, E17K); details: for IC50: HEK293, 2 hours at 37° C.
Chain of AKT1 E17K (P31749 whole entry E17K): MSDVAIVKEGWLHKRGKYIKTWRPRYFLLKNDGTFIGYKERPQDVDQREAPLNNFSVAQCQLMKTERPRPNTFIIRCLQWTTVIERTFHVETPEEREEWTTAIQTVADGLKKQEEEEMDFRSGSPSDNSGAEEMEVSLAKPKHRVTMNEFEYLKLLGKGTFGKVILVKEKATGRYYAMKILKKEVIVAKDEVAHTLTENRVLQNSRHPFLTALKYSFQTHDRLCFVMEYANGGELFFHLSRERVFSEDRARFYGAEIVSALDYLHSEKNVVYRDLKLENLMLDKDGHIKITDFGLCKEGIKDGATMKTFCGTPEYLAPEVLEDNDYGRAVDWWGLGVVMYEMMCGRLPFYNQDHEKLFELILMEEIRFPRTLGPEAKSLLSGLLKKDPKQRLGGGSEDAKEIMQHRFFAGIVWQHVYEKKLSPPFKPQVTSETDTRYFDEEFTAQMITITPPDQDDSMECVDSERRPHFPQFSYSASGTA

Chain of AKT1 WT (P31749 whole entry): as the sequence (P31749 whole entry E17K) above, with K17E counted along it
Chain of AKT2 (P31751 whole entry): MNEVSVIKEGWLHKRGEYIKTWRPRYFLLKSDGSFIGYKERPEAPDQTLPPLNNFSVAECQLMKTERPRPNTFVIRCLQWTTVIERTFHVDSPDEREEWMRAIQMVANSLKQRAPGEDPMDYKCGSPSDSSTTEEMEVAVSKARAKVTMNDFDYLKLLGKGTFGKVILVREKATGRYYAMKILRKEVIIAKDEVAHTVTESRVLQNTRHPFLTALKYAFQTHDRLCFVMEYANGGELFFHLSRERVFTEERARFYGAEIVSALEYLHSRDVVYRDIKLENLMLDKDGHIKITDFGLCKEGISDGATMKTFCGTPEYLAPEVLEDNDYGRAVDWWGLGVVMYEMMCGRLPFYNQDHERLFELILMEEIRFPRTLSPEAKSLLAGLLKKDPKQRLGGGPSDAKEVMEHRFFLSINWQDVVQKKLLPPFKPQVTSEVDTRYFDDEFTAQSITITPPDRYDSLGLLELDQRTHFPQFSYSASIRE

IC50 (AKT2)	IC50 (AKT1 WT)	AKT1 E17K IC50: Selectivity vs AKT1 WT (AKT1 E17K)	AKT1 E17K IC50: Selectivity vs AKT2 (AKT1 E17K)	IC50 (AKT1 E17K)	Compound
100 to 500 nM	100 to 500 nM	0.26	0.75	100 to 500 nM	C[C@H](NCCc1ccc(O)c(C=O)c1)c1ccc(-n2c(-c3cccnc3N)nc3ccc(-c4ccccc4)nc32)cc1 [Compound 92, 5-(2-{[(1S)-1-{4-[2-(2-aminopyridin-3-yl)-5-phenylimidazo[4,5-b]pyridin-3-yl]phenyl}ethyl]amino}ethyl)-2-hydroxybenzaldehyde]
> 500 nM	100 to 500 nM	3.9	50	< 100 nM	Nc1ncccc1-c1nc2cccnc2n1-c1ccc(CNC(=O)Cc2ccc(C=O)c(O)c2F)cc1 [Compound 93, N-({4-[2-(2-aminopyridin-3-yl)imidazo[4,5-b]pyridin-3-yl]phenyl}methyl)-2-(2-fluoro-4-formyl-3-hydroxyphenyl)acetamide]
> 500 nM	> 500 nM	1.8	2.5	> 500 nM	Nc1ncccc1-c1nc2cccnc2n1-c1ccc(CNCCc2ccc(C=O)c(O)c2F)cc1 [Compound 95, 4-(2-((4-(2-(2-aminopyridin-3-yl)-3H-imidazo[4,5-b]pyridin-3-yl)benzyl)amino)ethyl)-3-fluoro-2-hydroxybenzaldehyde]
100 to 500 nM	< 100 nM	0.56	1.9	< 100 nM	COc1cc(CCNCc2ccc(-n3c(-c4cccnc4N)nc4ccc(-c5ccccc5)nc43)cc2)ccc1C=O [Compound 97, 4-{2-[({4-[2-(2-aminopyridin-3-yl)-5-phenylimidazo[4,5-b]pyridin-3-yl]phenyl}methyl)amino]ethyl}-2-methoxybenzaldehyde]
> 500 nM	< 100 nM	2.5	38	< 100 nM	CC(=O)Nc1cc(CCNCc2ccc(-n3c(-c4cccnc4N)nc4cccnc43)cc2)ccc1C=O [Compound 98, N-(5-{2-[({4-[2-(2-aminopyridin-3-yl)imidazo[4,5-b]pyridin-3-yl]phenyl}methyl)amino]ethyl}-2-formylphenyl)acetamide]
> 500 nM	100 to 500 nM	3.7	8.4	< 100 nM	Nc1ncccc1-c1nc2ccc(Cl)nc2n1-c1ccc(CNCCc2ccc(C=O)c(O)c2)cc1 [Compound 99, 4-{2-[({4-[2-(2-aminopyridin-3-yl)-5-chloroimidazo[4,5-b]pyridin-3-yl]phenyl}methyl)amino]ethyl}-2-hydroxybenzaldehyde]
> 500 nM	100 to 500 nM	1.9	13	100 to 500 nM	CN(C(=O)CCc1ccc(C=O)c(O)c1)c1ccc(-n2c(-c3cccnc3N)nc3ccc(-c4ccccc4)nc32)cc1 [Compound 100, N-(4-(2-(2-aminopyridin-3-yl)-5-phenyl-3H-imidazo[4,5-b]pyridin-3-yl)phenyl)-3-(4-formyl-3-hydroxyphenyl)-N-methylpropanamide]
100 to 500 nM	< 100 nM	1.8	5.9	< 100 nM	CS(=O)(=O)Nc1cccc(-c2ccc3nc(-c4cccnc4N)n(-c4ccc(CNCCc5ccc(C=O)c(O)c5)cc4)c3n2)c1 [Compound 101, N-{3-[2-(2-aminopyridin-3-yl)-3-[4-({[2-(4-formyl-3-hydroxyphenyl)ethyl]amino}methyl)phenyl]imidazo[4,5-b]pyridin-5-yl]phenyl}methanesulfonamide]
> 500 nM	100 to 500 nM	1.1	2	100 to 500 nM	CC(=O)Nc1cccc(-c2ccc3nc(-c4cccnc4N)n(-c4ccc(CNCCc5ccc(C=O)c(O)c5F)cc4)c3n2)c1 [Compound 102, N-{3-[2-(2-aminopyridin-3-yl)-3-[4-({[2-(2-fluoro-4-formyl-3-hydroxyphenyl)ethyl]amino}methyl)phenyl]imidazo[4,5-b]pyridin-5-yl]phenyl}acetamide]
100 to 500 nM	< 100 nM	2.5	11	< 100 nM	Nc1ncccc1-c1nc2ccc(-c3ccccn3)nc2n1-c1ccc(CNCCc2ccc(C=O)c(O)c2)cc1 [Compound 103, 4-{2-[({4-[2-(2-aminopyridin-3-yl)-5-(pyridin-2-yl)imidazo[4,5-b]pyridin-3-yl]phenyl}methyl)amino]ethyl}-2-hydroxybenzaldehyde]
> 500 nM	> 500 nM	0.72	1	> 500 nM	Nc1ncccc1-c1nc2ccc(-c3ccccc3)nc2n1-c1ccc(C(=O)NCC#Cc2ccc(C=O)c(O)c2)cc1 [Compound 104, 4-(2-(2-aminopyridin-3-yl)-5-phenyl-3H-imidazo[4,5-b]pyridin-3-yl)-N-(3-(4-formyl-3-hydroxyphenyl)prop-2-yn-1-yl)benzamide]
> 500 nM	> 500 nM	1	>1.0	> 500 nM	C[C@@H](NCCc1ccc(O)c(C=O)c1)c1ccc(-n2c(-c3cccnc3N)nc3ccc(-c4ccccc4)nc32)cc1 [Compound 105, (R)-5-(2-((1-(4-(2-(2-aminopyridin-3-yl)-5-phenyl-3H-imidazo[4,5-b]pyridin-3-yl)phenyl)ethyl)amino)ethyl)-2-hydroxybenzaldehyde]
> 500 nM	> 500 nM	0.85	0.91	> 500 nM	Nc1ncccc1-c1nc2ccc(-c3ccccc3)nc2n1-c1ccc(S(=O)(=O)NCCc2ccc(C=O)c(O)c2)cc1 [Compound 106, 4-[2-(2-aminopyridin-3-yl)-5-phenylimidazo[4,5-b]pyridin-3-yl]-N-[2-(4-formyl-3-hydroxyphenyl)ethyl]benzenesulfonamide]
< 100 nM	< 100 nM	1.2	2.1	< 100 nM	Nc1ncccc1-c1nc2ccc(-c3cccc(N4CCOCC4)c3)nc2n1-c1ccc(CNCCc2ccc(C=O)c(O)c2)cc1 [Compound 108, 4-(2-((4-(2-(2-aminopyridin-3-yl)-5-(3-morpholinophenyl)-3H-imidazo[4,5-b]pyridin-3-yl)benzyl)amino)ethyl)-2-hydroxybenzaldehyde]
< 100 nM	< 100 nM	0.63	0.6	< 100 nM	CC(=O)N(C)C1CCN(c2cccc(-c3ccc4nc(-c5cccnc5N)n(-c5ccc(CNCCc6ccc(C=O)c(O)c6)cc5)c4n3)c2)CC1 [Compound 109, N-(1-{3-[2-(2-aminopyridin-3-yl)-3-[4-({[2-(4-formyl-3-hydroxyphenyl)ethyl]amino}methyl)phenyl]imidazo[4,5-b]pyridin-5-yl]phenyl}piperidin-4-yl)-N-methylacetamide]
